The source of these data is patent US10487068B2, “Pyridazine derivatives as RORc modulators” (Genentech, Inc., priority 2015, dated 2019).

Broadly, the IC50 is the midpoint of a concentration-inhibition curve.

The target of the assay is T1, RORc ligand binding domain (Homo sapiens, UniProt P51449).
T1 sequence (P51449 269-508 limits assumed): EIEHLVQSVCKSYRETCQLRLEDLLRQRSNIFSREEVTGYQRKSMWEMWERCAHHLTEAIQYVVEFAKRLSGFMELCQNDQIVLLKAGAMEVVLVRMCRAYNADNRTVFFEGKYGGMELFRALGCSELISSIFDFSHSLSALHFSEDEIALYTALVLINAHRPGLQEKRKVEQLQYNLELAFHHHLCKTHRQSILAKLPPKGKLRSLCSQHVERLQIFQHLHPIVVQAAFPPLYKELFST
The assay can be described thus: In Vitro RORc Ligand Binding Assay. The conditions noted are these: RORc IC50, radioligand 25-[3H]hydroxycholesterol 6 nM; 0.6 ug/mL RORc receptor; 3 h at 25° C.

Structures are written as SMILES.

`CNC(=O)c1cncc([C@@]23CC[C@@H](c4cc(-c5c(F)cccc5F)nnc42)C3(C)C)n1` [Example 27, 6-((5R,8S)-3-(2,6-difluorophenyl)-9,9-dimethyl-5,6,7,8-tetrahydro-5,8-methanocinnolin-8-yl)-N-methylpyrazine-2-carboxamide] returned an IC50 of 26.4 nM.
Turning to `CN(C)C(=O)c1cncc([C@@]23CC[C@@H](c4cc(-c5c(F)cccc5F)nnc42)C3(C)C)n1` [Example 28, 6-((5R,8S)-3-(2,6-difluorophenyl)-9,9-dimethyl-5,6,7,8-tetrahydro-5,8-methanocinnolin-8-yl)-N,N-dimethylpyrazine-2-carboxamide], the half-maximal inhibitory concentration (IC50) came out at 41.7 nM.
With `CC1(C)[C@H]2CC[C@]1(c1cncc(C(=O)NC3COC3)n1)c1nnc(-c3c(F)cccc3F)cc12` [Example 29, 6-((5R,8S)-3-(2,6-difluorophenyl)-9,9-dimethyl-5,6,7,8-tetrahydro-5,8-methanocinnolin-8-yl)-N-(oxetan-3-yl)pyrazine-2-carboxamide], the IC50 amounted to 43.1 nM.
The same measure for `CC1(C)[C@H]2CC[C@]1(c1cncc(C(=O)N3CC(C#N)C3)n1)c1nnc(-c3c(F)cccc3F)cc12` [Example 30, 1-(6-((5R,8S)-3-(2,6-difluorophenyl)-9,9-dimethyl-5,6,7,8-tetrahydro-5,8-methanocinnolin-8-yl)pyrazine-2-carbonyl)azetidine-3-carbonitrile]: 146 nM.
The same measure for `CC1(C)[C@H]2CC[C@]1(c1cncc(C(=O)N3CC(CO)C3)n1)c1nnc(-c3c(F)cccc3F)cc12` [Example 31, (6-((5R,8S)-3-(2,6-difluorophenyl)-9,9-dimethyl-5,6,7,8-tetrahydro-5,8-methanocinnolin-8-yl)pyrazin-2-yl)(3-(hydroxymethyl)azetidin-1-yl)methanone]: 93.3 nM; for `CC(=O)Nc1cncc([C@@]23CC[C@@H](c4cc(-c5c(F)cccc5F)nnc42)C3(C)C)n1` [Example 32, N-(6-((5R,8S)-3-(2,6-difluorophenyl)-9,9-dimethyl-5,6,7,8-tetrahydro-5,8-methanocinnolin-8-yl)pyrazin-2-yl)acetamide]: 22 nM; for `CC1(C)[C@H]2CC[C@]1(c1cncc(N)n1)c1nnc(-c3c(F)cccc3F)cc12` [Example 33, 6-((5R,8S)-3-(2,6-difluorophenyl)-9,9-dimethyl-5,6,7,8-tetrahydro-5,8-methanocinnolin-8-yl)pyrazin-2-amine]: 22 nM.
The same measure for `CC1(C)[C@H]2CC[C@]1(c1cncc(NS(C)(=O)=O)n1)c1nnc(-c3c(F)cccc3F)cc12` [Example 34, N-(6-((5R,8S)-3-(2,6-difluorophenyl)-9,9-dimethyl-5,6,7,8-tetrahydro-5,8-methanocinnolin-8-yl)pyrazin-2-yl)methanesulfonamide]: 75.9 nM.
The compound `Cc1nnc(-c2cncc([C@@]34CC[C@@H](c5cc(-c6c(F)cccc6F)nnc53)C4(C)C)n2)o1` [Example 35, 2-(6-((5R,8S)-3-(2,6-difluorophenyl)-9,9-dimethyl-5,6,7,8-tetrahydro-5,8-methanocinnolin-8-yl)pyrazin-2-yl)-5-methyl-1,3,4-oxadiazole] showed an IC50 of 21.7 nM.
`COCCNC(=O)c1cncc([C@@]23CC[C@@H](c4cc(-c5c(F)cccc5F)nnc42)C3(C)C)n1` [Example 36, 6-((5R,8S)-3-(2,6-difluorophenyl)-9,9-dimethyl-5,6,7,8-tetrahydro-5,8-methanocinnolin-8-yl)-N-(2-methoxyethyl)pyrazine-2-carboxamide] yielded an IC50 of 37.1 nM.
Turning to `CC1(C)[C@H]2CC[C@]1(c1cccc(C(=O)N3CCOCC3)n1)c1nnc(-c3c(F)cccc3F)cc12` [Example 37, (6-((5R,8S)-3-(2,6-difluorophenyl)-9,9-dimethyl-5,6,7,8-tetrahydro-5,8-methanocinnolin-8-yl)pyridin-2-yl)(morpholino)methanone], the IC50 was determined as 48.2 nM.
The same measure for `CN(CCO)C(=O)c1cccc([C@@]23CC[C@@H](c4cc(-c5c(F)cccc5F)nnc42)C3(C)C)n1` [Example 38, 6-((5R,8S)-3-(2,6-difluorophenyl)-9,9-dimethyl-5,6,7,8-tetrahydro-5,8-methanocinnolin-8-yl)-N-(2-hydroxyethyl)-N-methylpicolinamide]: 37.7 nM; for `COCCNC(=O)c1cccc([C@@]23CC[C@@H](c4cc(-c5c(F)cccc5F)nnc42)C3(C)C)n1` [Example 39, 6-((5R,8S)-3-(2,6-difluorophenyl)-9,9-dimethyl-5,6,7,8-tetrahydro-5,8-methanocinnolin-8-yl)-N-(2-methoxyethyl)picolinamide]: 11.6 nM.
Take `CC1(NC(=O)c2cccc([C@@]34CC[C@@H](c5cc(-c6c(F)cccc6F)nnc53)C4(C)C)n2)CC1` [Example 40, 6-((5R,8S)-3-(2,6-difluorophenyl)-9,9-dimethyl-5,6,7,8-tetrahydro-5,8-methanocinnolin-8-yl)-N-(1-methylcyclopropyl)picolinamide]: the IC50 was determined as 9.9 nM.
The same measure for `CC1(C)[C@H]2CC[C@]1(c1cncc(C(=O)NCCO)n1)c1nnc(-c3c(F)cccc3F)cc12` [Example 41, 6-((5R,8S)-3-(2,6-difluorophenyl)-9,9-dimethyl-5,6,7,8-tetrahydro-5,8-methanocinnolin-8-yl)-N-(2-hydroxyethyl)pyrazine-2-carboxamide]: 25.6 nM; for `CC1(C)[C@H]2CC[C@]1(c1cc(C#N)ccn1)c1nnc(-c3c(F)cccc3F)cc12` [Example 42]: 12.1 nM.
The same measure for `CC1(C)[C@H]2CC[C@]1(c1nccc(C#N)n1)c1nnc(-c3c(F)cccc3F)cc12` [Example 43, 2-((5R,8R)-3-(2,6-difluorophenyl)-9,9-dimethyl-5,6,7,8-tetrahydro-5,8-methanocinnolin-8-yl)pyrimidine-4-carbonitrile]: 27 nM; for `CONC(=O)c1cccc([C@@]23CC[C@@H](c4cc(-c5c(F)cccc5F)nnc42)C3(C)C)n1` [Example 44, 6-((5R,8S)-3-(2,6-difluorophenyl)-9,9-dimethyl-5,6,7,8-tetrahydro-5,8-methanocinnolin-8-yl)-N-methoxypicolinamide]: 14.9 nM; for `CC1(C)[C@H]2CC[C@]1(c1cccc(C(N)=O)n1)c1nnc(-c3c(F)cccc3F)cc12` [Example 45, 6-((5R,8S)-3-(2,6-difluorophenyl)-9,9-dimethyl-5,6,7,8-tetrahydro-5,8-methanocinnolin-8-yl)picolinamide]: 8.66 nM.
For `CC1(C)[C@H]2CC[C@]1(c1nccc(C(N)=O)n1)c1nnc(-c3c(F)cccc3F)cc12` [Example 46, 2-((5R,8R)-3-(2,6-difluorophenyl)-9,9-dimethyl-5,6,7,8-tetrahydro-5,8-methanocinnolin-8-yl)pyrimidine-4-carboxamide], the IC50 was 43.2 nM.
The same measure for `CNC(=O)c1ccnc([C@@]23CC[C@@H](c4cc(-c5c(F)cccc5F)nnc42)C3(C)C)n1` [Example 47, 2-((5R,8R)-3-(2,6-difluorophenyl)-9,9-dimethyl-5,6,7,8-tetrahydro-5,8-methanocinnolin-8-yl)-N-methylpyrimidine-4-carboxamide]: 58.3 nM; for `CC1(C)[C@@H]2CC[C@@]1(c1cccc(C(N)=O)n1)c1nnc(-c3c(F)cccc3F)cc12` [Example 48, 6-((5S,8R)-3-(2,6-difluorophenyl)-9,9-dimethyl-5,6,7,8-tetrahydro-5,8-methanocinnolin-8-yl)picolinamide]: 15.6 nM; for `C[C@@H](O)CNC(=O)c1cncc([C@@]23CC[C@@H](c4cc(-c5c(F)cccc5F)nnc42)C3(C)C)n1` [Example 49, 6-((5R,8S)-3-(2,6-difluorophenyl)-9,9-dimethyl-5,6,7,8-tetrahydro-5,8-methanocinnolin-8-yl)-N-((R)-2-hydroxypropyl)pyrazine-2-carboxamide]: 40.9 nM.
The same measure for `C[C@H](O)CNC(=O)c1cncc([C@@]23CC[C@@H](c4cc(-c5c(F)cccc5F)nnc42)C3(C)C)n1` [Example 50, 6-((5R,8S)-3-(2,6-difluorophenyl)-9,9-dimethyl-5,6,7,8-tetrahydro-5,8-methanocinnolin-8-yl)-N-((S)-2-hydroxypropyl)pyrazine-2-carboxamide]: 31.7 nM; for `C[C@H](CO)NC(=O)c1cncc([C@@]23CC[C@@H](c4cc(-c5c(F)cccc5F)nnc42)C3(C)C)n1` [Example 51, 6-((5R,8S)-3-(2,6-difluorophenyl)-9,9-dimethyl-5,6,7,8-tetrahydro-5,8-methanocinnolin-8-yl)-N-((R)-1-hydroxypropan-2-yl)pyrazine-2-carboxamide]: 59 nM; for `C[C@@H](CO)NC(=O)c1cncc([C@@]23CC[C@@H](c4cc(-c5c(F)cccc5F)nnc42)C3(C)C)n1` [Example 52, 6-((5R,8S)-3-(2,6-difluorophenyl)-9,9-dimethyl-5,6,7,8-tetrahydro-5,8-methanocinnolin-8-yl)-N-((S)-1-hydroxypropan-2-yl)pyrazine-2-carboxamide]: 38 nM.
`CC1(C)[C@H]2CC[C@]1(c1cc(C(=O)O)ccn1)c1nnc(-c3c(F)cccc3F)cc12` [Example 53] showed an IC50 of 475 nM.
The same measure for `C[C@H](CO)NC(=O)c1cccc([C@@]23CC[C@@H](c4cc(-c5c(F)cccc5F)nnc42)C3(C)C)n1` [Example 54, 6-((5R,8S)-3-(2,6-difluorophenyl)-9,9-dimethyl-5,6,7,8-tetrahydro-5,8-methanocinnolin-8-yl)-N-((R)-1-hydroxypropan-2-yl)picolinamide]: 29.5 nM; for `C[C@@H](CO)NC(=O)c1cccc([C@@]23CC[C@@H](c4cc(-c5c(F)cccc5F)nnc42)C3(C)C)n1` [Example 55, 6-((5R,8S)-3-(2,6-difluorophenyl)-9,9-dimethyl-5,6,7,8-tetrahydro-5,8-methanocinnolin-8-yl)-N-((S)-1-hydroxypropan-2-yl)picolinamide]: 21.4 nM.
